According to US10155021B2, “Antimicrobial 4-oxoquinolizines” (Emergent Product Development Gaithersburg Inc., priority 2011, dated 2018):
Converted amounts (≈) assume the structure as drawn. Read-outs that look alike come from different tables or passages of the source.

How the values were obtained:
S. epidermis 12228 = assay: MIC, standard panel of Gram-positive and Gram-negative bacteria (CLSI); assay type: cell-based, Staphylococcus epidermis; conditions: Staphylococcus, 12228; CAMHB; read-out: MIC S. epidermis 12228
S. aureus 25923 = assay: as above; assay type: cell-based, Staphylococcus aureus; conditions: Staphylococcus aureus, 25923; CAMHB; read-out: MIC S. aureus 25923
A. baumannii A489 = assay: MIC determination for Acinetobacter strains (Example 3); assay type: cell-based; conditions: LEV R, CIP R, MRP R, IMP R, AMK R, TET R
S. pneumoniae 1027 = assay: MIC, panel of quinolone-resistant strains (CLSI); assay type: cell-based; conditions: Streptococcus pneumoniae, LEV R
S. aureus 25923 HS = assay: MIC, standard panel of Gram-positive and Gram-negative bacteria (CLSI); assay type: cell-based; conditions: Staphylococcus aureus, CAMHB, HS, read-out: MIC S. aureus 25923 HS
A. baumannii ATCC 19606 = assay: Preliminary MBC without and with sub-inhibitory polymyxin B (Example 4); assay type: cell-based, Acinetobacter baumannii; conditions: Acinetobacter baumannii, ATCC19606, A. baumannii ATCC 19606; without polymyxin B; 2nd experiment; preliminary MBC; read-out: MBC without PB
A. baumannii J2 [1] = assay: MIC without and with sub-inhibitory polymyxin B (Example 4); assay type: cell-based, Acinetobacter baumannii; conditions: Acinetobacter baumannii, J2, A. baumannii J2, without polymyxin B, read-out: MIC without PB
A. baumannii A390 [2] = assay: MIC determination for Acinetobacter strains (Example 3); assay type: cell-based; conditions: LEV R, CIP R, MRP R, IPM I, AMK R, TET I
A. baumannii A 401 = assay: as above; assay type: cell-based; conditions: A401, LEV R, CIP R, AMK R, TET R
E. coli CTX-M-15 = assay: MIC, panel of quinolone-resistant strains (CLSI); assay type: cell-based; conditions: Escherichia coli, CTXM15; CIP R, ESBL
P. aeruginosa 27853 = assay: MIC, standard panel of Gram-positive and Gram-negative bacteria (CLSI); assay type: cell-based, Pseudomonas aeruginosa; conditions: Pseudomonas aeruginosa, 27853; CAMHB; read-out: MIC P. aeruginosa 27853
B. thailandensis = assay: microbe, parasite or virus in culture; assay type: cell-based, Burkholderia thailandensis; conditions: for MIC90: Burkholderia thailandensis, read-out: MIC90 B. thailandensis
E. coli IMP = assay: microbe, parasite or virus in culture; conditions: Escherichia coli, read-out: MIC E. coli IMP
A. Baumanii OXA-51 = assay: MIC, panel of quinolone-resistant strains (CLSI); assay type: cell-based; conditions: Acinetobacter baumannii; CIP R, ESBL
A. baumannii A473 = assay: MIC determination for Acinetobacter strains (Example 3); assay type: cell-based; conditions: LEV R, CIP R, MRP R, IMP R, AMK R, TET R
A. baumannii A390 [3] = assay: MIC without and with sub-inhibitory polymyxin B (Example 4); assay type: cell-based, Acinetobacter baumannii; conditions: Acinetobacter baumannii, A390, A. baumannii A390; without polymyxin B; 1st experiment; read-out: MIC without PB
A. baumannii A387 [4] = assay: MIC determination for Acinetobacter strains (Example 3); assay type: cell-based; conditions: LEV I, CIP R, IPM R, AMK R, TET R
A. baumannii J2 [5] = assay: as above; assay type: cell-based; conditions: LEV R, CIP R
A. baumannii A387 [6] = assay: MIC without and with sub-inhibitory polymyxin B (Example 4); assay type: cell-based, Acinetobacter baumannii; conditions: Acinetobacter baumannii, A387, A. baumannii A387, without polymyxin B, read-out: MIC without PB
A. baumannii A387 [7] = assay: Preliminary MBC without and with sub-inhibitory polymyxin B (Example 4); assay type: cell-based, Acinetobacter baumannii; conditions: Acinetobacter baumannii, A387, A. baumannii A387, without polymyxin B, read-out: MBC without PB
E. coli 25922 = assay: MIC, standard panel of Gram-positive and Gram-negative bacteria (CLSI); assay type: cell-based, Escherichia coli; conditions: Escherichia coli, 25922; CAMHB; read-out: MIC E. coli 25922
[8] = tested on: 11 strains of A. baumannii and one strain of Acinetobacter sp.; assay: Preliminary MBC without and with sub-inhibitory polymyxin B, whole panel (Example 4; also strains not listed separately); assay type: cell-based; conditions: Acinetobacter baumannii, read-out: MBC without PB
[9] = tested on: S. aureus ATCC 43300 (MRSA, FQ-S); assay: MIC, selected panel of Gram-positive and Gram-negative strains (Example 5); assay type: cell-based, Staphylococcus aureus; conditions: Staphylococcus aureus; read-out: MIC S. aureus ATCC 43300 (MRSA, FQ-S)
B. thailandensis E264 = assay: microbe, parasite or virus in culture; assay type: cell-based, Burkholderia thailandensis; conditions: Burkholderia thailandensis, E264, read-out: MIC B. thailandensis E264
[10] = tested on: S. aureus BAA-1556 (USA300-Type MRSA, FQ-R); assay: MIC, selected panel of Gram-positive and Gram-negative strains (Example 5); assay type: cell-based, Staphylococcus aureus; conditions: Staphylococcus aureus; read-out: MIC S. aureus BAA-1556 (USA300-Type MRSA, FQ-R)
P. aeruginosa ATCC 27853 = assay: as above; assay type: cell-based; conditions: Pseudomonas aeruginosa, ATCC27853; read-out: MIC P. aeruginosa ATCC 27853

SMILES	MIC (S. aureus 25923) [µg/mL]	MIC (A. baumannii A489) [µg/mL]	MIC (S. pneumoniae 1027) [µg/mL]	MIC (S. aureus 25923 HS) [µg/mL]	MIC (A. baumannii J2 [1]; 2nd experiment, visual reading) [µg/mL]	MIC (A. baumannii A 401) [µg/mL]	MIC (E. coli CTX-M-15) [µg/mL]	MIC (P. aeruginosa 27853) [µg/mL]	MIC90 (B. thailandensis) [µg/mL]	MIC (E. coli IMP) [µg/mL]	MIC (A. Baumanii OXA-51) [µg/mL]	MIC (A. baumannii A473) [µg/mL]	MIC (E. coli 25922) [µg/mL]	also measured
Cc1c(-c2ccc(N)cc2)c(F)cn2c(=O)c(C(=O)O)cc(C3CC3)c12 [Compound 7, 8-(4-amino-phenyl)-1-cyclopropyl-7-fluoro-9-methyl-4-oxo-quinolizine-3-carboxylic acid]	< 0.008	8 (≈ 22.7 µM)	4 (≈ 11.4 µM)	1 (≈ 2.84 µM)	4 (≈ 11.4 µM)	4 (≈ 11.4 µM)	32 (≈ 90.8 µM)	4 (≈ 11.4 µM)	< 0.048	< 0.008	8 (≈ 22.7 µM)	4 (≈ 11.4 µM)	–	MIC (S. epidermis 12228): < 0.008 µg/mL; MBC (A. baumannii ATCC 19606): 0.25 µg/mL (≈ 0.709 µM); MIC (A. baumannii A390 [2]): 8 µg/mL (≈ 22.7 µM); Dilutions improvement shift on B. thailandensis MIC90 (between pH 7 and pH 5) (B. thailandensis; pH 7 versus pH 5): Yes, 4×; MIC (A. baumannii A390 [3]): 8 µg/mL (≈ 22.7 µM)
Cc1c(-c2cc(Cl)c(N)c(Cl)c2)ccn2c(=O)c(C(=O)O)cc(C3CC3)c12 [Compound 3, 8-(3,5-dichloro-4-amino-phenyl)-1-cyclopropyl-9-methyl-4-oxo-quinolizine-3-carboxylic acid]	< 0.008	4 (≈ 9.92 µM)	2 (≈ 4.96 µM)	1 (≈ 2.48 µM)	32 (≈ 79.4 µM)	8 (≈ 19.8 µM)	> 32	2 (≈ 4.96 µM)	< 0.048	–	8 (≈ 19.8 µM)	4 (≈ 9.92 µM)	< 0.03	MIC (A. baumannii A387 [4]): 1 µg/mL (≈ 2.48 µM); MIC (A. baumannii J2 [5]): 8 µg/mL (≈ 19.8 µM); MIC (A. baumannii A387 [6]; 1st experiment): 1 µg/mL (≈ 2.48 µM); MIC (A. baumannii A387 [6]; 2nd experiment, visual reading): 1 µg/mL (≈ 2.48 µM); MBC (A. baumannii A387 [7]; 1st experiment): 1 µg/mL (≈ 2.48 µM); MBC (A. baumannii A387 [7]; 2nd experiment): 4 µg/mL (≈ 9.92 µM); MIC (A. baumannii J2 [1]; 1st experiment): 8 µg/mL (≈ 19.8 µM)
Cc1c(-c2ccc(CN)c(F)c2)ccn2c(=O)c(C(=O)O)cc(C3CC3)c12 [Compound 4, 8-(3-fluoro-4-aminomethyl-phenyl)-1-cyclopropyl-9-methyl-4-oxo-quinolizine-3-carboxylic acid]	–	–	1 (≈ 2.73 µM)	–	–	16 (≈ 43.7 µM)	16 (≈ 43.7 µM)	–	–	< 0.008	16 (≈ 43.7 µM)	–	< 0.03	MBC ([8]; A. baumannii A14, without polymyxin B, 1st experiment): 16 µg/mL (≈ 43.7 µM); MBC ([8]; A. baumannii A14, without polymyxin B, 2nd experiment): > 32 µg/mL; MBC ([8]; NCTC13301, A. baumannii NCTC 13301, without polymyxin B, 2nd experiment): 32 µg/mL (≈ 87.3 µM); MIC [9]: 0.032 to 0.064 µg/mL (≈ 0.0873 to 0.175 µM); MIC (B. thailandensis E264): 1 µg/mL (≈ 2.73 µM); MIC [10]: 0.5 µg/mL (≈ 1.36 µM); MIC (P. aeruginosa ATCC 27853): 1 µg/mL (≈ 2.73 µM)
